What was measured:
CCRF-CEM = test: Inhibition of CEM cell proliferation.; assay type: functional, cell-based; settings: Homo sapiens
[1] = biological target: Inosine-5'-monophosphate dehydrogenase 2 (Homo sapiens, UniProt P12268); test: Inhibition of inosine-5'-monophosphate dehydrogenase 2.; assay type: single protein

## CC(C)(C)NC(=O)C(=O)Nc1ccc(-c2cnco2)c(Cl)c1
CCRF-CEM
  IC50: > 10 µM

## CC(C)(C)NC(=O)C(=O)Nc1ccc(-c2cnco2)c(Br)c1
CCRF-CEM
  IC50: 5.5 µM

## COc1cc(NC(=O)C(=O)NC(C)(C)C)ccc1-c1cnco1
CCRF-CEM
  IC50: 2.3 µM

## CC(C)(C)NC(=O)C(=O)Nc1ccc(-c2cnco2)cc1
[1]
  IC50: > 5 µM

## Cc1ncoc1-c1ccc(NC(=O)C(=O)NC(C)(C)C)cc1
[1]
  IC50: > 5 µM

## Cc1cccc(NC(=O)Nc2ccc(-c3cnco3)c(Cl)c2)c1
CCRF-CEM
  IC50: > 10 µM
[1]
  IC50: 0.043 µM

## CN(C(=O)CN1CCOCC1)c1ccccc1-c1cnc(Nc2ccc(-c3cnco3)c(Cl)c2)o1
CCRF-CEM
  IC50: 4.3 µM
[1]
  IC50: 0.047 µM

## c1ccc(-c2cnc(Nc3ccc(-c4cocn4)cc3)o2)cc1
[1]
  IC50: > 5 µM

## Cc1cc(Nc2ncc(-c3ccccc3N(C)C(=O)CO)o2)ccc1-c1cnco1
CCRF-CEM
  IC50: 4.5 µM
[1]
  IC50: 0.1 µM

## Cc1cccc(NC(=O)Nc2ccc(-c3ocnc3C)cc2)c1
[1]
  IC50: 0.5 µM

## COc1cc(Nc2ncc(-c3ccccc3N(C)C(=O)CN3CCOCC3)o2)ccc1-c1cocn1
CCRF-CEM
  IC50: 9.9 µM
[1]
  IC50: 0.091 µM

## CNc1nc(Nc2ccc(-c3cocn3)c(OC)c2)nc(-c2ccccc2)n1
[1]
  IC50: 1.6 µM

## COc1cc(Nc2ncc(-c3ccccc3N(C)C(=O)CO)o2)ccc1-c1cnco1
CCRF-CEM
  IC50: 1.4 µM
[1]
  IC50: 0.021 µM

## COc1c(-c2cnco2)ccc(Nc2ncc(-c3ccccc3)o2)c1Cl
[1]
  IC50: > 5 µM

## CN(C(=O)CN1CCOCC1)c1ccccc1-c1cnc(Nc2ccc(-c3cnco3)c(Br)c2)o1
CCRF-CEM
  IC50: 3.2 µM
[1]
  IC50: 0.028 µM

## CNc1nc(Nc2ccc(-c3cnco3)c(OC)c2)nc(-c2ccccc2)n1
CCRF-CEM
  IC50: 3.7 µM

## COc1cc(NC(=NC#N)Nc2ccccc2)ccc1-c1cnco1
[1]
  IC50: 0.24 µM

## Cc1cccc(NC(=O)Nc2ccc(-c3cnco3)cc2)c1
CCRF-CEM
  IC50: > 10 µM
[1]
  IC50: 0.64 µM

## COc1cc(Nc2ncc(-c3ccccc3)o2)c(F)cc1-c1cnco1
[1]
  IC50: > 5 µM

## CNc1nc(Nc2ccc(-c3cnco3)cc2)nc(-c2ccccc2)n1
[1]
  IC50: > 5 µM

## COc1cc(Nc2ncc(-c3ccccc3)o2)ccc1-n1cncn1
CCRF-CEM
  IC50: 8.3 µM
[1]
  IC50: 0.41 µM

## Cc1cc(Nc2ncc(-c3ccccc3)o2)ccc1-c1cocn1
[1]
  IC50: > 5 µM

## CCc1cc(Nc2ncc(-c3ccccc3N(C)C(=O)CO)o2)ccc1-c1cnco1
CCRF-CEM
  IC50: 4.5 µM
[1]
  IC50: 0.1 µM

## Cc1cc(Nc2ncc(-c3ccccc3N(C)C(=O)CN3CCOCC3)o2)ccc1-c1cnco1
CCRF-CEM
  IC50: 3 µM
[1]
  IC50: 0.045 µM

## Clc1cc(Nc2ncc(-c3ccccc3)o2)ccc1-c1cocn1
[1]
  IC50: > 5 µM

## CCOc1cc(Nc2ncc(-c3ccccc3)o2)ccc1-c1cnco1
[1]
  IC50: > 10 µM

## CNc1nc(Nc2ccc(-c3ocnc3C)cc2)nc(-c2ccccc2)n1
[1]
  IC50: > 5 µM

## CCc1cc(Nc2ncc(-c3ccccc3N(C)C(=O)CN3CCOCC3)o2)ccc1-c1cnco1
CCRF-CEM
  IC50: > 10 µM
[1]
  IC50: 0.31 µM

## CN(C(=O)CO)c1ccccc1-c1cnc(Nc2ccc(-c3cnco3)c(Br)c2)o1
CCRF-CEM
  IC50: 2.4 µM
[1]
  IC50: 0.021 µM

## Oc1cc(Nc2ncc(-c3ccccc3)o2)ccc1-c1cnco1
[1]
  IC50: > 1.6 µM

## COc1cc(Nc2ncc(-c3ccccc3N(C)C(=O)CO)o2)ccc1-c1cocn1
CCRF-CEM
  IC50: 3.7 µM
[1]
  IC50: 0.041 µM

## COc1cc(Nc2ncc(-c3ccccc3)o2)c(Cl)cc1-c1cnco1
[1]
  IC50: > 1.6 µM

## Clc1cc(Nc2ncc(-c3ccccc3)o2)ccc1-c1cnco1
CCRF-CEM
  IC50: > 10 µM
[1]
  IC50: 0.088 µM

## CN(C(=O)CO)c1ccccc1-c1cnc(Nc2ccc(-c3cnco3)c(Cl)c2)o1
CCRF-CEM
  IC50: 3.6 µM
[1]
  IC50: 0.041 µM

## COc1cc(Nc2ncc(-c3ccccc3)o2)ccc1-c1cnc(C)o1
[1]
  IC50: > 2 µM

## Cc1nc(C)c(-c2ccc(Nc3ncc(-c4ccccc4)o3)cc2)o1
[1]
  IC50: > 2 µM

## COc1cc(Nc2ncc(-c3ccccc3)o2)ccc1-c1cocn1
CCRF-CEM
  IC50: > 10 µM
[1]
  IC50: > 0.057 µM

## COc1cc(Nc2ncc(-c3ccccc3)o2)ccc1-c1ocnc1C
[1]
  IC50: > 5 µM

## COc1cc(Nc2ncc(-c3ccccc3)o2)ccc1-c1cnco1
CCRF-CEM
  IC50: > 10 µM

## Cc1ncoc1-c1ccc(NC(=O)/C=C/c2ccco2)cc1
[1]
  IC50: > 2 µM

## Cc1ncoc1-c1ccc(Nc2ncc(-c3ccccc3)o2)cc1
[1]
  IC50: > 5 µM

## COc1cc(NC(=O)Nc2cccc(C)c2)ccc1-c1cnco1
CCRF-CEM
  IC50: 2.3 µM

## c1ccc(-c2cnc(Nc3ccc(-c4cnco4)cc3)o2)cc1
[1]
  IC50: > 5 µM

## COc1cc(Nc2ncc(-c3ccccc3)o2)ccc1-c1ncco1
[1]
  IC50: 0.19 µM

## COc1cc2nc(-c3ccccc3)cc(O)c2cc1-c1cocn1
CCRF-CEM
  IC50: 3.5 µM
[1]
  IC50: 0.21 µM

## CNc1nc(Nc2ccc(-c3cnco3)c(Cl)c2)nc(-c2ccccc2)n1
[1]
  IC50: > 0.34 µM

— ChEMBL document CHEMBL1145140, “Inhibitors of inosine monophosphate dehydrogenase: SARs about the N-[3-Methoxy-4-(5-oxazolyl)phenyl moiety” (Bioorg Med Chem Lett, 2003)
